Results: US9597407B2, “Targeted antimicrobial moieties” (C3 Jian, Inc., priority 2009, dated 2017)
Ends that are not written are not given here.

Key:
microorganisms [1] = experiment: Peptide activities: binding, antimicrobial, growth or phenotype altering (Table 8)
Source text: In certain embodiments, peptides described herein can have multiple activities. Thus for example, a peptide can have both binding/targeting activity and antimicrobial activity. Such peptides can be used, e.g., in a chimeric construct, for any or all of these properties. Thus, for example, a peptide designated “B” in Table 8 can be used as a targeting peptide. If it is also designated G or M it can also be used for antimicrobial activity.

microorganisms [2] = experiment: Morphology, biofilm and growth disruption by peptides (Table 5); format: cell-based; set-up: key: A: Peptide aggregates; B: Less hyphal formation; Clumps; Diffuse clumps and small polyps; F: Diffuse growth; H: Thin; I: Growth inhibition; Microcolony formation; Rippled; Small polyps; Thick; W: Halo formation on top, microlonies on bottom
Source text: In certain embodiments peptides that induce alterations in phenotype or other biological activities can also be used as antimicrobial effector moieties.

Substance | Activities (microorganisms [1]) | Organism, effect (morphology, biofilm and growth disruption) (microorganisms [2]; E. coli) | Organism, effect (morphology, biofilm and growth disruption) (microorganisms [2]; E. faecalis) | Organism, effect (morphology, biofilm and growth disruption) (microorganisms [2]; MRSA) | Organism, effect (morphology, biofilm and growth disruption) (microorganisms [2]; P. aeruginosa) | Organism, effect (morphology, biofilm and growth disruption) (microorganisms [2]; S. epidermidis) | Organism, effect (morphology, biofilm and growth disruption) (microorganisms [2]; S. pneumoniae) | Organism, effect (morphology, biofilm and growth disruption) (microorganisms [2]; C. jejuni) | Organism, effect (morphology, biofilm and growth disruption) (microorganisms [2]; C. albicans) | Organism, effect (morphology, biofilm and growth disruption) (microorganisms [2]; M. luteus) | Organism, effect (morphology, biofilm and growth disruption) (microorganisms [2]; S. mutans) | Organism, effect (morphology, biofilm and growth disruption) (microorganisms [2]; B. subtilis) | Organism, effect (morphology, biofilm and growth disruption) (microorganisms [2]; C. jeikeium) | Organism, effect (morphology, biofilm and growth disruption) (microorganisms [2]; P. mirabilis)
PF-454 (MSVFVPVTNIFMFIMSPIFNVNLLHFKVYI; Peptide with targeting and/or antimicrobial activity) | G B | E. coli (R) | E. faecalis (C) | MRSA (C) | P. aeruginosa (H) | S. epidermidis (C) | S. pneumoniae (R) |  |  |  |  |  |  | 
PF-458 (ISLIIFIMLFVVALFKCITNYKHQS; Peptide with targeting and/or antimicrobial activity) | G B |  |  | MRSA (M) | P. aeruginosa (H) |  | S. pneumoniae (M) |  |  |  |  |  |  | 
PF-460 (MEHVLPFQNTPPNIVIIYKDFTHLKSITFS; Peptide with targeting and/or antimicrobial activity) | G B | E. coli (H) | E. faecalis (C) | MRSA (C) |  | S. epidermidis (C) | S. pneumoniae (R) |  |  |  |  |  |  | 
PF-465 (KPVGKALEEIADGKIEPVVPKEYLG; Peptide with targeting and/or antimicrobial activity) | G B |  |  |  |  |  | S. pneumoniae (H) |  |  |  |  |  |  | 
PF-469 (YKVNYNNIDNHFNTLRH; Peptide with targeting and/or antimicrobial activity) | G B | E. coli (C) | E. faecalis (D) | MRSA (D) |  | S. epidermidis (D) | S. pneumoniae (D) | C. jejuni (D) |  |  |  |  |  | 
PF-471 (MVGKIRGVTPRNDLLNANITGQLNLNYRLI; Peptide with targeting and/or antimicrobial activity) | G B | E. coli (C) | E. faecalis (C) | MRSA (D) | P. aeruginosa (A) | S. epidermidis (C) | S. pneumoniae (D) | C. jejuni (D) |  |  |  |  |  | 
PF-475 (MREKVRFTQAFKLFWTNYFNFKGRSRRSEY; Peptide with targeting and/or antimicrobial activity) | G B |  | E. faecalis (R) | MRSA (S) |  | S. epidermidis (M) | S. pneumoniae (R) | C. jejuni (R) | C. albicans (B) |  |  |  |  | 
PF-478 (HLFILKSHLKPFPPFRYTYD; Peptide with targeting and/or antimicrobial activity) | G B | E. coli (C) |  | MRSA (H) |  | S. epidermidis (C) | S. pneumoniae (C) |  |  |  |  |  |  | 
PF-479 (AYILKRREEKNK; Peptide with targeting and/or antimicrobial activity) | G B |  |  |  |  |  | S. pneumoniae (C) |  |  |  |  |  |  | 
PF-482 (LVGYVRTSGTVRSYKIN; Peptide with targeting and/or antimicrobial activity) | G B |  |  |  |  |  | S. pneumoniae (S) |  |  |  |  |  |  | 
PF-526 (VLLLFIFQPFQKQLL-NH2) | G B | E. coli (R) |  | MRSA (C) |  | S. epidermidis (C) | S. pneumoniae (R) |  | C. albicans (C) |  |  |  |  | 
PF-537 (LANDYYKKTKKSW; Peptide with targeting and/or antimicrobial activity) | G B |  |  |  |  |  | S. pneumoniae (C) |  |  |  |  |  |  | 
PF-539 (SIILTKKKRRKIPLSIDSQIYKYTFKQ; Peptide with targeting and/or antimicrobial activity) | G B |  |  | MRSA (H) |  |  | S. pneumoniae (A) |  |  |  |  |  |  | 
PF-543 (NILFGIIGFVVAMTAAVIVTAISIAK; Peptide with targeting and/or antimicrobial activity) | G B | E. coli (C) |  | MRSA (D) |  | S. epidermidis (D) | S. pneumoniae (D) |  |  | M. luteus (C) | S. mutans (S) |  |  | 
PF-544 (FGEKQMRSWWKVHWFHP; Peptide with targeting and/or antimicrobial activity) | G B |  | E. faecalis (R) | MRSA (D) |  | S. epidermidis (D) | S. pneumoniae (M) |  |  |  |  |  |  | 
PF-548 (ARPIADLIHFNSTTVTASGDVYYGPG; Peptide with targeting and/or antimicrobial activity) | G B |  |  | MRSA (M) |  | S. epidermidis (M) | S. pneumoniae (D) | C. jejuni (D) |  | M. luteus (A) |  | B. subtilis (C) | C. jeikeium (R) | 
PF-556 (SLQIRMNTLTAAKASIEAA; Peptide with targeting and/or antimicrobial activity) | G B |  | E. faecalis (A) | MRSA (M) |  | S. epidermidis (A) | S. pneumoniae (D) | C. jejuni (R) |  | M. luteus (A) |  | B. subtilis (C) | C. jeikeium (D) | 
PF-562 (TPEQWLERSTVVVTGLLNRK; Peptide with targeting and/or antimicrobial activity) | G B |  |  | MRSA (M) |  | S. epidermidis (A) | S. pneumoniae (D) | C. jejuni (R) |  | M. luteus (R) |  |  |  | 
PF-577 (PFETRESFRVPVIGILGGWDYFMHP; Peptide with targeting and/or antimicrobial activity) | G B | E. coli (A) | E. faecalis (A) | MRSA (M) | P. aeruginosa (A) | S. epidermidis (A) | S. pneumoniae (R) | C. jejuni (R) |  |  |  |  |  | 
PF-578 (QKANLRIGFTYTSDSNVCNLTFALLGSK; Peptide with targeting and/or antimicrobial activity) | G B | E. coli (C) |  | MRSA (C) |  | S. epidermidis (D) | S. pneumoniae (D) |  |  | M. luteus (C) | S. mutans (D) |  |  | P. mirabilis (C)
PF-603 (IDKLKKMNLQKLSYEVRISQDGKSIYARIK; Peptide with targeting and/or antimicrobial activity) | G B | E. coli (M) |  | MRSA (M) |  | S. epidermidis (D) | S. pneumoniae (C) |  |  | M. luteus (A) |  |  |  | 
PF-619 (chain 1 WSRVPGHSDTGWKVWHRW; chain 2 WSRVPGHSDTGWKVWHRW; Peptide with targeting and/or antimicrobial activity) | G B | E. coli (C) |  | MRSA (M) |  | S. epidermidis (M) | S. pneumoniae (C) |  |  |  |  |  |  | 
